Source: patent publication US20240317833A1, “NON-HLA RESTRICTED T CELL VACCINE FOR TCR GAMMA ALTERNATE READING FRAME PROTEIN (TARP) PROTEIN EXPRESSING CANCERS” (PDS BIOTECHNOLOGY CORPORATION, priority 2022, published 2024)
No end group written: not given here.

Tested on: TARP antigen-specific T cells
Test: IFN-γ ELISPOT on splenocytes of vaccinated HLA-A2 transgenic (AAD) mice, s.c. day 0 and day 7
Assay type: in vivo, HLA-A2 expressing transgenic mice (AAD mice)
Conditions: for response when used as a stimulatory peptide for the ELISPOT: HLA-A2 transgenic mouse model; for TARP 21-40 ELISPOT responses: FIG. 8; for TARP 29-37 (9V) ELISPOT responses: encapsulated in R-DOTAP nanoparticles, stimulatory peptide TARP 29-37 (9V) in water/sucrose
[1] = FIG. 6, formulated with R-DOTAP nanoparticles, stimulatory peptide SEQ ID NO:3 (9V), antigen dose 100 micrograms
[2] = FIG. 7, formulated with R-DOTAP nanoparticles, stimulatory peptide TARP 21-40 (SEQ ID NO:6), antigen dose 100 micrograms
[3] = formulated with R-DOTAP nanoparticles, two immunizations, stimulatory peptide TARP 21-40 (17V) in water/sucrose
[4] = FIG. 5, formulated in CFA, stimulatory peptide TARP 27-35 (SEQ ID NO:2), antigen dose 100 micrograms

| Substance | antigen-specific ELISPOT responses [1] | antigen-specific ELISPOT responses [2] | TARP 21-40 ELISPOT responses [3] | TARP 29-37 (9V) ELISPOT responses (FIG. 9, two immunizations) | antigen-specific ELISPOT responses [4] | also measured |
| --- | --- | --- | --- | --- | --- | --- |
| FLRNFSLMV (not fully specified) [SEQ ID NO:3] | no antigen-specific ELISPOT responses | no or very weak antigen-specific ELISPOT responses | no or very weak TARP 21-40 ELISPOT responses | did not appear to elicit any TARP 29-37 (9V) ELISPOT responses | – | response when used as a stimulatory peptide for the ELISPOT (FIG. 6): apparently inactive; ELISPOT responses to TARP 29-37 (9V) (FIG. 9, Complete Freund's Adjuvant (CFA), stimulatory peptide TARP 29-37 (9V)): Very weak or no ELISPOT responses |
| FVFLRNFSL (not fully specified) [SEQ ID NO:2] | – | – | – | – | – | response when used as a stimulatory peptide for the ELISPOT (FIG. 5): apparently inactive |
| KSS-FLRNFSLMV (not fully specified; palmitoylated; SITE 1 Palmitoyl modified residue) [SEQ ID NO:10, palmitoylated TARP 2 (29-37)] | – | – | – | – | no antigen-specific ELISPOT responses | – |
| KSS-RRLEHTFVFLRNFSLMLLRG (not fully specified; palmitoylated; SITE 1 Palmitoyl modified residue) [SEQ ID NO:13, palmitoylated TARP 6 (21-40)] | no antigen-specific ELISPOT responses | no or very weak antigen-specific ELISPOT responses | no or very weak TARP 21-40 ELISPOT responses | – | no antigen-specific ELISPOT responses | antigen-specific ELISPOT responses (FIG. 6, formulated in CFA, stimulatory peptide SEQ ID NO:3 (9V), antigen dose 100 micrograms): no antigen-specific ELISPOT responses; antigen-specific ELISPOT responses (FIG. 7, formulated in CFA, stimulatory peptide TARP 21-40 (SEQ ID NO:6), antigen dose 100 micrograms): no or very weak antigen-specific ELISPOT responses |
| RRLEHTFVFLRNFSLMLLRG (not fully specified) [SEQ ID NO:6] | no antigen-specific ELISPOT responses | no or very weak antigen-specific ELISPOT responses | no or very weak TARP 21-40 ELISPOT responses | did not appear to elicit any TARP 29-37 (9V) ELISPOT responses | no antigen-specific ELISPOT responses | response when used as a stimulatory peptide for the ELISPOT (FIG. 7): inactive or very weakly active; TARP 21-40 ELISPOT responses (Complete Freunds Adjuvant (CFA), stimulated with TARP 21-40 (SEQ ID NO:6)): very weakly active |
| SSEEEDE-RRLEHTFVFLRNFSLMLLRG (SSEEEDERRLEHTFVFLRNFSLMLLRG; Anionic amino acids) [SEQ ID NO:21] | no antigen-specific ELISPOT responses | no or very weak antigen-specific ELISPOT responses | no or very weak TARP 21-40 ELISPOT responses | – | no antigen-specific ELISPOT responses | mice responding to vaccination (FIG. 7, R-DOTAP nanoparticles, antigen dose 100 micrograms): two of six |
